Source: US12104169B2, “Chemical reprogramming to generate neuronal cells” (The J. David Gladstone Institutes, a testamentary trust …, priority 2015, dated 2024)
Structures can show the parent of a compound that is named as a salt.

Assays:
tdMEFs = test: Combinatorial chemical screening for neural reprogramming of tdMEFs (Sox2/Nestin co-expression); format: cell-based, mouse; conditions: for generation of Sox2/Nestin double-positive cells: added to the six-molecule condition; for Sox2/Nestin double-positive cells: primary screening, single molecule added to basal condition (LDN, A83, CHIR, bFGF), ten days post-treatment
Protocol: (§1) Cells were washed once with 1×PBS and fixed with 4% paraformaldehyde at room temperature for 10 minutes, followed by permeabilization with 0.2% Triton X-100 in 1×PBS for 10 min, and blocking with 7.5% BSA for at least 1 hour. All primary antibodies were diluted in 1×PBS with 7.5% BSA, and the incubation was performed at 4° C. overnight. The cells were washed with 1×PBS five times for 10 min each at room temperature. The secondary antibodies, labeled with Alexa-488, Alexa-555, and Alexa-647, were purchased from Invitrogen, and were diluted into 1×PBS with 7.5% BSA. Incubation with the secondary antibodies was for 1 hour at room temperature, followed by five 10-minute washes with 1×PBS. The nuclei were stained with DAPI. Living cell staining was used for cell-surface marker O4, as described by Najm et al. (Nat. Biotechnol. 31: 426-433 (2013)). Antibodies used in this study are listed below in Table 1.
Briefly, tdMEFs were plated into neural reprogramming basal medium at 15,000 cells per well in 24-well plate, and after an overnight culture, individual small molecules from a focused chemical collection, including epigenetic modifiers, metabolism regulators, and signaling modulators, were added. Ten days post-treatment, cells were fixed, immune-stained, and analyzed for co-expression of Sox2 and Nestin, two typical NSC markers (FIG. 1A-1B).

Hedgehog (Hh) signaling = conditions: read-out: EC50 activation of Hedgehog (Hh) signaling; cited from earlier work
SAPK2/p38 = SAPK2/p38 (Homo sapiens, UniProt Q16539); conditions: CK1 and ALK5 inhibitor versus SAPK2/p38; cited from earlier work
tdMEF [1] = test: M9 chemical conversion of tdMEFs to ciNSLCs (Sox2/Nestin immunostaining); format: cell-based, mouse; conditions: FIG. 2G
Protocol: To convert the fibroblasts into ciNSLCs, MEFs were seeded into Matrigel (Corning, 1:40 dilution)-coated 24-well plates at 15,000 per well, or 1-1.5 million in 15-cm dishes in MEF medium (Dulbecco's modified Eagle's medium supplemented with 10% FBS, 0.1 mM nonessential amino acids, and 2 mM Glutamax) for the first 24 hours. […] M9 medium was refreshed every other day. After a 10-day induction, cells were cultured in neural stem cells medium (NSC medium). Afterwards, the cells could be repeatedly propagated in NSC medium.
as §1, with “Antibodies used in this study are listed below in Table 1.” left out

tdMEF [2] = test: Inhibitor assay: pathway inhibitors added to M9 reprogramming; format: cell-based, mouse; conditions: Sox2+/Nestin+ cells at day 10
Protocol: When performing the reprogramming, small molecule inhibitors, including 0.5 μM PD0325901, 10 μM SP 600125, 5 μM SB203580, 5 μM LY294002, or 2 μM LDE 225, was added in the freshly made M9 culture medium. DMSO was used in basal medium as control. The medium was changed every 2 days, and the Sox2+/Nestin+ cells were analyzed by immunostaining by day 10 after treatment.

[3] = biological target: Smoothened (Smo) receptor (Homo sapiens, UniProt Q99835); conditions: cited from earlier work
[4] = system: Hedgehog signaling pathway in Shh-light 2 cells; conditions: read-out: EC50 activation of Hedgehog signaling pathway; cited from earlier work
[5] = system: A53T alpha-synuclein clearance in PC-12 cells; conditions: independent of rapamycin treatment; cited from earlier work
ciNSLC-derived neurons = format: cell-based, mouse

Chain of SAPK2/p38 (Q16539 whole entry): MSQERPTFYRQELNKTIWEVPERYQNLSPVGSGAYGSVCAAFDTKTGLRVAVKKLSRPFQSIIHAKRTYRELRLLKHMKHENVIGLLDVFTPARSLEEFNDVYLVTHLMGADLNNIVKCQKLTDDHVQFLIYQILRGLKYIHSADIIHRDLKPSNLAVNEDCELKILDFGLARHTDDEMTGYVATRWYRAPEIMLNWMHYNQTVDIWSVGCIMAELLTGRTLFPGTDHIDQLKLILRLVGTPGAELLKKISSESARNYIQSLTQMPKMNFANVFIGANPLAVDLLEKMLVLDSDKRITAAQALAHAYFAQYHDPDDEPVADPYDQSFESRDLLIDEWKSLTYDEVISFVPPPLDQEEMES
Chain of Smoothened (Smo) receptor (Q99835 28-787): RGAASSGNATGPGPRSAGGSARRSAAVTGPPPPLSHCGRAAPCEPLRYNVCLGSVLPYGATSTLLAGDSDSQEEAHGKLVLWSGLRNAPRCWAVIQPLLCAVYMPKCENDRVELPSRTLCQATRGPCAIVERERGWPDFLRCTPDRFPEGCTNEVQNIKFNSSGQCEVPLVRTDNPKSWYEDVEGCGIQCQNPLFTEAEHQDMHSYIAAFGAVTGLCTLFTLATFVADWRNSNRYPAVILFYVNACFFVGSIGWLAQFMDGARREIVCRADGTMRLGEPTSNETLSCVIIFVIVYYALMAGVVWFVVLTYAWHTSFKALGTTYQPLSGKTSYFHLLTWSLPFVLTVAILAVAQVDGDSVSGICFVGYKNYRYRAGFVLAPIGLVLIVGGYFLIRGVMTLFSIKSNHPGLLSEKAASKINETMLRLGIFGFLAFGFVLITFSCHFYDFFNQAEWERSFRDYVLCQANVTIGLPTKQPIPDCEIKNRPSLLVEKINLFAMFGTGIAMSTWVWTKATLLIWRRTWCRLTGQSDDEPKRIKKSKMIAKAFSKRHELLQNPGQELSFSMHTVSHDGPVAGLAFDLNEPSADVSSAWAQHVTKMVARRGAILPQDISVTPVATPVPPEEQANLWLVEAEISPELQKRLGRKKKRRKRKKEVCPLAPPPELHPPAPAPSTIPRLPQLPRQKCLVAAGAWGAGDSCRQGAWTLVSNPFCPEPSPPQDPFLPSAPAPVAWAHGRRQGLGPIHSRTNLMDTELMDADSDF

Compound: N[C@@H]1C[C@H]1c1ccccc1 (racemic) [Parnate, tranylcypromine sulfate]
- generation of Sox2/Nestin double-positive cells (tdMEFs): further enhanced

Compound: O=C(O)[C@@H](Cc1c[nH]c2ccccc12)N1C(=O)c2ccccc2C1=O (stereo in doubt) [RG108, N-Phthalyl-L-tryptophan]
- generation of Sox2/Nestin double-positive cells (tdMEFs): further enhanced

Compound: CC(C)CCC[C@](C)(O)[C@H]1CC[C@H]2[C@@H]3CC=C4C[C@@H](O)CC[C@]4(C)[C@H]3CC[C@@]21C [(3β)-Cholest-5-ene-3,20-diol]
- EC50 (Hedgehog (Hh) signaling): ~3000 nM

Compound: NC(=O)c1ccc(-c2nc(-c3ccc4c(c3)OCCO4)c(-c3ccccn3)[nH]2)cc1 [D 4476, 4-[4-(2,3-Dihydro-1,4-benzodioxin-6-yl)-5-(2-pyridinyl)-1H-imidazol-2-yl]benzamide]
- selectivity over SAPK2/p38 (SAPK2/p38): greater than 20 fold

Compound: CNC1CCC(N(Cc2cccc(-c3ccncc3)c2)C(=O)c2sc3c(F)ccc(F)c3c2Cl)CC1 (stereo not shown) [Hh-Ag 1.5, 3-chloro-4,7-difluoro-N-(4-(methylamino)cyclohexyl)-N-(3-(pyridin-4-yl)benzyl)benzo[b]thiophene-2-carboxamide]
- Sox2/Nestin double-positive cells (tdMEFs): 3.68%
- reprogramming efficiency when the component is removed from the M9 cocktail (tdMEF [1]): affected the ciNSLC induction most

Compound: Cc1c(C(=O)Nc2ccc(N3C[C@@H](C)O[C@@H](C)C3)nc2)cccc1-c1ccc(OC(F)(F)F)cc1 [LDE-225]
- reduction of reprogramming efficiency (tdMEF [2]; 2 μM added to M9 medium): about 6 fold

Compound: O=c1cc(N2CCOCC2)oc2c(-c3ccccc3)cccc12 [LY294002]
- reduction of reprogramming efficiency (tdMEF [2]; 5 μM LY294002 added to M9 medium): ~4 fold

Compound: O=C(NOC[C@H](O)CO)c1ccc(F)c(F)c1Nc1ccc(I)cc1F [PD0325901]
- reduction of reprogramming efficiency (tdMEF [2]; 0.5 μM added to M9 medium): about 9 fold

Compound: CN[C@H]1CC[C@H](N(Cc2cccc(-c3ccncc3)c2)C(=O)c2sc3ccccc3c2Cl)CC1 [SAG, 3-Chloro-N-[trans-4-(methylamino)cyclohexyl]-N-[[3-(4-pyridinyl)phenyl]methyl]benzo[b]thiophene-2-carboxamide]
- Kd [3]: 59 nM
- EC50 [4]: ~3 nM

Compound: C[S+]([O-])c1ccc(-c2nc(-c3ccc(F)cc3)c(-c3ccncc3)[nH]2)cc1 (stereo not shown) [SB203580]
- reduction of reprogramming efficiency (tdMEF [2]; 5 μM SB203580 added to M9 medium): ~5 fold

Compound: C=CCNc1ncnc2ccc(Br)cc12 [SMER28, 6-bromo-N-2-propenyl-4-quinazolinamine]
- generation of Sox2/Nestin double-positive cells (tdMEFs): further enhanced
- A53T alpha-synuclein clearance [5]: enhances

Compound: Oc1c2ccccc2c2c3c(cccc13)N=N2 [SP600125]
- reduction of reprogramming efficiency (tdMEF [2]; 10 μM added to M9 medium): ~6 fold

Compound: CC1=C(/C=C/C(C)=C/C=C/C(C)=C/C(=O)O)C(C)(C)CCC1 [retinoic acid]
- Sox2/Nestin double-positive cells (tdMEFs): 1.26%

Compound: CC[N+](CC)(CC)CC [tetraethylammonium]
- persistent outward current (ciNSLC-derived neurons): blocked

Compound: NC1=N[C@H](O)[C@H]2[C@H]3O[C@]4(O)O[C@@H]([C@@H](O)[C@@]2(N1)[C@@H]4O)[C@]3(O)CO [tetrodotoxin]
- inactivating inward current (ciNSLC-derived neurons): blocked

Compound: bFGF: basic fibroblast growth factor (bFGF; also known as FGF2)
- reprogramming efficiency when the component is removed from the M9 cocktail (tdMEF [1]): affected the ciNSLC induction most
